Reference: patent publication US4360663A, “Steroid hormone-antitumor derivatives” (Kureha Kagaku Kogyo Kabushiki Kaisha, priority 1978, dated 1982)

Tests used:
[1] = system: estrogen sensitive cells (uterus of rabbit); experiment: Binding function to estrogen sensitive cells (3H-estradiol replacement, uterus of rabbit); settings: 10 nM sample; smaller value = higher binding; 54-56% at 0 nM
[2] = system: estrogen sensitive cells (uterus of rabbit); experiment: as above; settings: 100 nM sample; smaller value = higher binding; 54-56% at 0 nM
Description: Binding function of the active ingredients to estrogen sensitive cells.
The binding function of the active ingredient to tumor cells was tested by the method described in Biochemical Experiment text Hormone (I) (Nippon Seikagaku) (Tokyo Kagakudojin page 217-252, April 25, 1977).
Estradiol labelled by tritium (^3 H) was incubated with uterus of rabbit to bind it and then, the sample was added to the system to measure the amount of free ^3 H-estradiol which was replaced by the added estradiol. The results are shown as the binding ^3 H-estradiol(%) in the cases adding […] of the sample.

[3] = system: human breast cancer cells having steroid hormone receptor; experiment: Antitumor test (in vivo), human breast cancer cells implanted in BALB/C-nu/nu mice; settings: tumors excised day 25
Description: Pieces of human breast cancer cells having steroid hormone receptor was subcutaneously implanted under the arm of mice (BALB/C-nu/nu) (5 week age) to form solid tumors. After the solid tumors were established, each dispersion or solution of the active ingredient in olive oil was administered by oral dose or intraperitoneal injection each other day for 10 times or every days for 20 times. Twenty five days from the initial administration, the tumors were excised. Efficiency of inhibition of tumor proliferation was measured from (A) each average weight of excised tumors for 10 mice (the active ingredient was administrated) and (B) each average weight of excised tumors for 10 control mice. [formula]
(§1) The tests (1), (2), (3) for various active ingredients were carried out.

[4] = Acute toxicity (LD50), ICR-JCL female mice, Litchfield-Wilcoxon graph method; settings: mouse, in vivo, one dose, in olive oil, after 7 days
Description: In the measurement of LD50, eight ICR-JCL female mice (5 week age) were used as one group to breed in a transparent polycage, and each drug was dissolved in olive oil and administrated by routes of intraperitoneal injection (i.p.), oral administration (p.o.) and subcutaneous injection (s.c.), to the mice at one dose and then, their value of LD50 by Litchfield-Wilcoxon graph method is obtained after 7 days.
as §1

## 3-hydroxy-1,3,5(10)-estratriene-17β-[methyl-2-{N'-(2-chloroethyl)-N'-nitrosoureido}-2-deoxy-α-D-glucuronoyloxy]acetate [Test No. 2 (Table 17)]
[1]
  Binding 3H-estradiol: 37%
[2]
  Binding 3H-estradiol: 17%

## O=NN(CCCl)C(=O)N[C@H]1C(O)O[C@H](CO)[C@@H](O)[C@@H]1O (stereo partly drawn) [Test No. 1 (Table 18), reference compound]
[3]; i.p., 3 mg/kg
  Inhibitory effect of tumor, efficiency: 18%
[3]; i.p., 10 mg/kg
  Inhibitory effect of tumor, efficiency: 58%
[3]; p.o., 10 mg/kg
  Inhibitory effect of tumor, efficiency: 13%
[3]; p.o., 40 mg/kg
  Inhibitory effect of tumor, efficiency: 60%
[4]; ip
  LD50 at 168 h: 48 mg/kg
[4]; po
  LD50 at 168 h: 210 mg/kg

## C[C@]12CC[C@@H]3c4ccc(O)cc4CC[C@H]3[C@@H]1CC[C@@H]2OC(=O)COC(=O)[C@H]1OC(O)[C@H](NC(=O)N(CCCl)N=O)[C@@H](O)[C@@H]1O (stereo partly drawn) [Test No. 2 (Table 18), 3-hydroxy-1,3,5(10)-estratriene-17β-[2-{N'-(2-chloroethyl)-N'-nitrosoureido}-2-deoxy-D-glucuronoyloxy]acetate]
[3]; i.p., 1 mg/kg
  Inhibitory effect of tumor, efficiency: 90%
[3]; i.p., 3 mg/kg
  Inhibitory effect of tumor, efficiency: 92%
[3]; p.o., 10 mg/kg
  Inhibitory effect of tumor, efficiency: 73%
[3]; p.o., 40 mg/kg
  Inhibitory effect of tumor, efficiency: 89%
[4]; ip
  LD50 at 168 h: > 180 mg/kg
[4]; po
  LD50 at 168 h: > 1000 mg/kg

## CN(N=O)C(=O)N[C@H]1C(O)O[C@H](CO)[C@@H](O)[C@@H]1O (stereo partly drawn) [Test No. 5 (Table 18), 2-(N'--methyl-N'--nitrosoureido)-2-deoxy-D-glucopyranoside, reference compound]
[3]; i.p., 10 mg/kg
  Inhibitory effect of tumor, efficiency: 20%
[3]; i.p., 50 mg/kg
  Inhibitory effect of tumor, efficiency: 63%
[3]; p.o., 10 mg/kg
  Inhibitory effect of tumor, efficiency: 69%
[3]; p.o., 40 mg/kg
  Inhibitory effect of tumor, efficiency: 86%
[4]; ip
  LD50 at 168 h: 264 mg/kg
[4]; po
  LD50 at 168 h: > 1000 mg/kg

## O=c1[nH]cc(F)c(=O)[nH]1 [Test No. 8 (Table 17), 5-fluoro-2,4-dioxo-pyrimidine, reference compound]
[3]; i.p., 10 mg/kg
  Inhibitory effect of tumor, efficiency: 30%
[3]; i.p., 20 mg/kg
  Inhibitory effect of tumor, efficiency: 50%
[3]; p.o., 15 mg/kg
  Inhibitory effect of tumor, efficiency: 30%
[3]; p.o., 30 mg/kg
  Inhibitory effect of tumor, efficiency: 60%
[4]; ip
  LD50 at 168 h: 242 mg/kg
[4]; po
  LD50 at 168 h: 900 mg/kg

## C[C@]12CC[C@@H]3c4ccc(OC(=O)c5ccccc5)cc4CC[C@H]3[C@@H]1CC[C@@H]2OC(=O)Cn1cc(F)c(=O)[nH]c1=O [Test No. 8 (Table 18), 3-benzoyloxy-1,3,5(10)-estratriene-17β-[5-fluoro-2,4-dioxo-pyrimidin-1-yl]acetate]
[3]; i.p., 15 mg/kg
  Inhibitory effect of tumor, efficiency: 83%
[3]; i.p., 30 mg/kg
  Inhibitory effect of tumor, efficiency: 90%
[3]; p.o., 15 mg/kg
  Inhibitory effect of tumor, efficiency: 70%
[3]; p.o., 30 mg/kg
  Inhibitory effect of tumor, efficiency: 81%
[4]; ip
  LD50 at 168 h: 680 mg/kg
[4]; po
  LD50 at 168 h: > 3000 mg/kg

## CC(=O)Oc1ccc2c(c1)CC[C@@H]1[C@@H]2CC[C@]2(C)[C@@H](OC(=O)Cn3cc(F)c(=O)[nH]c3=O)CC[C@@H]12 [Test No. 9 (Table 18), 3-acetoxy-1,3,5(10)-estratriene-17β-[5-fluoro-2,4-dioxo-pyrimidin-1-yl]acetate]
[3]; i.p., 15 mg/kg
  Inhibitory effect of tumor, efficiency: 84%
[3]; i.p., 30 mg/kg
  Inhibitory effect of tumor, efficiency: 93%
[3]; p.o., 15 mg/kg
  Inhibitory effect of tumor, efficiency: 72%
[3]; p.o., 30 mg/kg
  Inhibitory effect of tumor, efficiency: 87%
[4]; ip
  LD50 at 168 h: 800 mg/kg
[4]; po
  LD50 at 168 h: > 3000 mg/kg

## CCC(=O)Oc1ccc2c(c1)CC[C@@H]1[C@@H]2CC[C@]2(C)[C@@H](OC(=O)Cn3cc(F)c(=O)[nH]c3=O)CC[C@@H]12 [Test No. 10 (Table 18), 3-propionyloxy-1,3,5(10)-estratriene-17β-[5-fluoro-2,4-dioxo-pyrimidin-1-yl]acetate]
[3]; i.p., 15 mg/kg
  Inhibitory effect of tumor, efficiency: 81%
[3]; i.p., 30 mg/kg
  Inhibitory effect of tumor, efficiency: 91%
[3]; p.o., 15 mg/kg
  Inhibitory effect of tumor, efficiency: 72%
[3]; p.o., 30 mg/kg
  Inhibitory effect of tumor, efficiency: 83%
[4]; ip
  LD50 at 168 h: 740 mg/kg
[4]; po
  LD50 at 168 h: > 3000 mg/kg

## CN(Cc1cnc2nc(N)nc(N)c2n1)c1ccc(C(=O)N[C@@H](CCC(=O)O)C(=O)O)cc1 [Test No. 12 (Table 18), 4-amino-N^10 --methylpteroyl glutamate, reference compound]
[3]; i.p., 5 mg/kg
  Inhibitory effect of tumor, efficiency: 48%
[3]; i.p., 20 mg/kg
  Inhibitory effect of tumor, efficiency: 65%
[3]; p.o., 10 mg/kg
  Inhibitory effect of tumor, efficiency: 31%
[3]; p.o., 50 mg/kg
  Inhibitory effect of tumor, efficiency: 42%
[4]; ip
  LD50 at 168 h: 94 mg/kg
[4]; po
  LD50 at 168 h: 230 mg/kg

## COc1cccc2c1C(=O)c1c(O)c3c(c(O)c1C2=O)C[C@@](O)(C(=O)CO)C[C@@H]3O[C@H]1C[C@H](N)[C@H](O)[C@H](C)O1 [Test No. 13 (Table 18), 3-glycoloyl-1,2,3,4,6,11-hexahydro-3,5,12-trihydroxy-10-methoxy-6,11-dioxo-1-naphthacenyl-3'-amino-2',3',6'-trideoxy-α-L-lyxo-hexapyranoside, reference compound]
[3]; i.p., 10 mg/kg
  Inhibitory effect of tumor, efficiency: 20%
[3]; p.o., 10 mg/kg
  Inhibitory effect of tumor, efficiency: 20%
[4]; po
  LD50 at 168 h: 730 mg/kg

## COc1cccc2c1C(=O)c1c(O)c3c(c(O)c1C2=O)C[C@@](O)(C(=O)CO)C[C@@H]3O[C@H]1C[C@H](NCC(=O)O[C@H]2CC[C@H]3[C@@H]4CCc5cc(O)ccc5[C@H]4CC[C@]23C)[C@H](O)[C@H](C)O1 [Test No. 14 (Table 18), 3-glycoloyl-1,2,3,4,6,11-hexahydro-3,5,12-trihydroxy-10-methoxy-6,11-dioxo-1-naphthacenyl-3'-[3-hydroxy-1,3,5(10)-estratriene-17β-oxycarbonylmethyl]amino-2',3',6'-trideoxy-α-L-lyxo-hexapyranoside]
[3]; p.o., 10 mg/kg
  Inhibitory effect of tumor, efficiency: 63%
[3]; p.o., 50 mg/kg
  Inhibitory effect of tumor, efficiency: 71%
[4]; po
  LD50 at 168 h: > 3000 mg/kg

## COc1cccc2c1C(=O)c1c(O)c3c(c(O)c1C2=O)C[C@@](O)(C(=O)CO)C[C@@H]3O[C@H]1C[C@H](NCC(=O)O[C@H]2CC[C@H]3[C@@H]4CCc5cc(OC(C)=O)ccc5[C@H]4CC[C@]23C)[C@H](O)[C@H](C)O1 [Test No. 15 (Table 18), 3-glycoloyl-1,2,3,4,6,11-hexahydro-3,5,12-trihydroxy-10-methoxy-6,11-dioxo-1-naphthacenyl-3'-[3-acetoxy-1,3,5(10)-estratriene-17β-oxycarbonylmethyl]amino-2',3',6'-trideoxy-α-L-lyxo-hexapyranoside]
[3]; p.o., 10 mg/kg
  Inhibitory effect of tumor, efficiency: 53%
[3]; p.o., 50 mg/kg
  Inhibitory effect of tumor, efficiency: 79%
[4]; po
  LD50 at 168 h: > 3000 mg/kg

## CCC(=O)Oc1ccc2c(c1)CC[C@@H]1[C@@H]2CC[C@]2(C)[C@@H](OC(=O)CN[C@H]3C[C@H](O[C@H]4C[C@](O)(C(=O)CO)Cc5c(O)c6c(c(O)c54)C(=O)c4c(OC)cccc4C6=O)O[C@@H](C)[C@H]3O)CC[C@@H]12 [compound 16]
[3]; p.o., 10 mg/kg
  Inhibitory effect of tumor, efficiency: 69%
[3]; p.o., 50 mg/kg
  Inhibitory effect of tumor, efficiency: 83%
[4]; po
  LD50 at 168 h: > 3000 mg/kg

## COc1cccc2c1C(=O)c1c(O)c3c(c(O)c1C2=O)C[C@@](O)(C(=O)CO)C[C@@H]3O[C@H]1C[C@H](NCC(=O)O[C@H]2CC[C@H]3[C@@H]4CCc5cc(OC(=O)c6ccccc6)ccc5[C@H]4CC[C@]23C)[C@H](O)[C@H](C)O1 [compound 17]
[3]; p.o., 10 mg/kg
  Inhibitory effect of tumor, efficiency: 70%
[3]; p.o., 50 mg/kg
  Inhibitory effect of tumor, efficiency: 79%
[4]; po
  LD50 at 168 h: > 3000 mg/kg

## COc1cccc2c1C(=O)c1c(O)c3c(c(O)c1C2=O)C[C@@](O)(C(C)=O)C[C@@H]3O[C@H]1C[C@H](N)[C@H](O)[C@H](C)O1 [compound 18]
[3]; i.p., 0.5 mg/kg
  Inhibitory effect of tumor, efficiency: 47%
[3]; i.p., 1 mg/kg
  Inhibitory effect of tumor, efficiency: 78%
[3]; p.o., 1 mg/kg
  Inhibitory effect of tumor, efficiency: 59%
[4]; ip
  LD50 at 168 h: 5 mg/kg
[4]; po
  LD50 at 168 h: 20 mg/kg

## COc1cccc2c1C(=O)c1c(O)c3c(c(O)c1C2=O)C[C@@](O)(C(C)=O)C[C@@H]3O[C@H]1C[C@H](NCC(=O)O[C@H]2CC[C@H]3[C@@H]4CCc5cc(O)ccc5[C@H]4CC[C@]23C)[C@H](O)[C@H](C)O1 [compound 19]
[3]; i.p., 0.1 mg/kg
  Inhibitory effect of tumor, efficiency: 90%
[3]; i.p., 0.5 mg/kg
  Inhibitory effect of tumor, efficiency: 99%
[3]; p.o., 1 mg/kg
  Inhibitory effect of tumor, efficiency: 72%
[3]; p.o., 5 mg/kg
  Inhibitory effect of tumor, efficiency: 85%
[4]; ip
  LD50 at 168 h: > 15 mg/kg
[4]; po
  LD50 at 168 h: > 2000 mg/kg

## C[C@]12CC[C@@H]3c4ccc(OC(=O)c5ccccc5)cc4CC[C@H]3[C@@H]1CC[C@@H]2OC(=O)COCCNc1nc(N2CC2)nc(N2CC2)n1 [compound 20]
[3]; i.p., 0.1 mg/kg
  Inhibitory effect of tumor, efficiency: 74%
[3]; p.o., 1 mg/kg
  Inhibitory effect of tumor, efficiency: 78%
[3]; p.o., 5 mg/kg
  Inhibitory effect of tumor, efficiency: 87%
[4]; ip
  LD50 at 168 h: > 15 mg/kg
[4]; po
  LD50 at 168 h: > 2000 mg/kg

## N[C@@H](Cc1ccc(N(CCCl)CCCl)cc1)C(=O)O [compound 21]
[3]; i.p., 0.1 mg/kg
  Inhibitory effect of tumor, efficiency: 51%
[3]; i.p., 0.5 mg/kg
  Inhibitory effect of tumor, efficiency: 57%
[3]; p.o., 1 mg/kg
  Inhibitory effect of tumor, efficiency: 61%
[3]; p.o., 3 mg/kg
  Inhibitory effect of tumor, efficiency: 72%
[4]; ip
  LD50 at 168 h: 6.2 mg/kg
[4]; po
  LD50 at 168 h: 15.9 mg/kg
